From ChEMBL document CHEMBL1201862, “PubChem BioAssay data set” (2004)
Active and inactive are the calls of the source.

How the values were obtained:
[1] = target: T1, Neuropeptides B/W receptor type 1 (Homo sapiens, UniProt P48145); test: Fluorescence-based dose response cell-based high throughput screening assay to identify antagonists of the G-protein coupled receptor 7 (GPR7). [Related pubchem assays: 1952 (Screening assay (GPR7 antagonists).), 1880 (Summary AID.)]; type: functional
T1 sequence (P48145 whole entry): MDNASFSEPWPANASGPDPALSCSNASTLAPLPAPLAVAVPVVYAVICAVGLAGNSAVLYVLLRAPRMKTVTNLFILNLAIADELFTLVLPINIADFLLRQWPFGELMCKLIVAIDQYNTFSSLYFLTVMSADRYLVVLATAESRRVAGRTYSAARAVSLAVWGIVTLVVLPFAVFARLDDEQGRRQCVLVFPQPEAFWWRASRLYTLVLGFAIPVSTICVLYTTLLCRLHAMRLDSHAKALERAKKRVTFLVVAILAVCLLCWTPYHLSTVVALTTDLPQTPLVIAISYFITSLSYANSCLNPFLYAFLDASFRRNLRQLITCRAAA

[2] = target: Melanin-concentrating hormone receptor 1 (Homo sapiens, UniProt Q99705); test: Fluorescence-based counterscreen for antagonists of the G-protein coupled receptor 7 (GPR7): cell-based high throughput dose response assay to identify antagonists of the melanin-concentrating hormone receptor 1 (MCHR1).; type: functional
[3] = target: T2, Short transient receptor potential channel 4 (Mus musculus, UniProt Q9QUQ5); test: mouse TRPC4 channel activators, dose response, cell-based, HEK293 TRPC4/mu-opioid, Fluo-4 calcium (AID 434937); type: functional
T2 sequence (Q9QUQ5 whole entry): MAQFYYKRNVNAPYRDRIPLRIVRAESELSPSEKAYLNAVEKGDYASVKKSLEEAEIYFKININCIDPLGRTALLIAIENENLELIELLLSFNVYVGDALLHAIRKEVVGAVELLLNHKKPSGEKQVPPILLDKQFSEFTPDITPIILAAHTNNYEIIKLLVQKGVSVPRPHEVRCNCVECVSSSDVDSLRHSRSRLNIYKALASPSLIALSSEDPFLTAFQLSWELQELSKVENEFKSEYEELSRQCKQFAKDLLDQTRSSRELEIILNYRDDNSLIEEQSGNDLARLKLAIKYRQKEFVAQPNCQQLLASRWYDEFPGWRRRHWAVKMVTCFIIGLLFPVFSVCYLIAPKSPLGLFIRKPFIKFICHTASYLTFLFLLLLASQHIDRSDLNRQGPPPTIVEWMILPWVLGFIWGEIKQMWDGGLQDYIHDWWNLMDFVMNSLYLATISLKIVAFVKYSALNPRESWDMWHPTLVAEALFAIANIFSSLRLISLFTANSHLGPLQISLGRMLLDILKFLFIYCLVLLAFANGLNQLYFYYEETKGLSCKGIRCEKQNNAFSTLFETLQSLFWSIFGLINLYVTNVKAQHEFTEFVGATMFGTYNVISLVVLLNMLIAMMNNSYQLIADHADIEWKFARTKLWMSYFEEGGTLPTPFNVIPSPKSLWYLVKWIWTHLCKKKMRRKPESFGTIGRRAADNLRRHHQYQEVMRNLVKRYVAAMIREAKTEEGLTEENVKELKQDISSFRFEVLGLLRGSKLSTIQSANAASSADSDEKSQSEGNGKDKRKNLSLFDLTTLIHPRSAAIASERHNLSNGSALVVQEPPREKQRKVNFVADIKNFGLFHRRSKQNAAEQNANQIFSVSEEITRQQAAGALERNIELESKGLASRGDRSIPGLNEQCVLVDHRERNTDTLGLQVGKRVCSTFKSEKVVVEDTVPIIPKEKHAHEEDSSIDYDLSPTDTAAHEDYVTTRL

[4] = target: Mitochondrial peptide methionine sulfoxide reductase (Bos taurus, UniProt P54149); test: Absorbance-based biochemical high throughput dose response assay for activators of Methionine sulfoxide reductase A (MsrA).; type: functional
[5] = target: T3, Tyrosine-protein phosphatase non-receptor type 22 (Homo sapiens, UniProt Q9Y2R2); test: PubChem AID 2135
T3 sequence (Q9Y2R2 whole entry): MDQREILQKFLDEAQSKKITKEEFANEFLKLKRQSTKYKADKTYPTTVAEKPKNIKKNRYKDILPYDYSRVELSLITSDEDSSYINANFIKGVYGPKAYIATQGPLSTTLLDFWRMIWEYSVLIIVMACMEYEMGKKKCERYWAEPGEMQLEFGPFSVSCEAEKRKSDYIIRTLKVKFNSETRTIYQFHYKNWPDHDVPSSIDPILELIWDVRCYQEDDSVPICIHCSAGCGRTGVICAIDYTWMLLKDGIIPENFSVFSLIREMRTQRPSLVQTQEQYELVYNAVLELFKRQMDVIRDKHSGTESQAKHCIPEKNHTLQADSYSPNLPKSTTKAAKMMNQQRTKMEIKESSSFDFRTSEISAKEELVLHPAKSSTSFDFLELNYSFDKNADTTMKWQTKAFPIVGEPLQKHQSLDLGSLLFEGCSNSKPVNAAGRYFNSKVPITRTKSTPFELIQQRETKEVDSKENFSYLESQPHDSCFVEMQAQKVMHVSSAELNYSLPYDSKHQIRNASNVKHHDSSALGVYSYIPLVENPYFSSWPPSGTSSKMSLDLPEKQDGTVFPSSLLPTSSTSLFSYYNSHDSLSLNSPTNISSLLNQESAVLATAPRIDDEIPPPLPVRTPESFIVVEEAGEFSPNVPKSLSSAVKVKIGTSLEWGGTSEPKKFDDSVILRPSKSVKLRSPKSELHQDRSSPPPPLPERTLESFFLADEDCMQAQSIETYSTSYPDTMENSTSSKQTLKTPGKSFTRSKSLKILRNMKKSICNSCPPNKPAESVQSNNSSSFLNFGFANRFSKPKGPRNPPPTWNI

[6] = target: T4, High affinity choline transporter 1 (Homo sapiens, UniProt Q9GZV3); test: CHT inhibitors, dose response, cell-based, 5-point CRC, membrane potential dye (AID 504840); type: functional
T4 sequence (Q9GZV3 whole entry): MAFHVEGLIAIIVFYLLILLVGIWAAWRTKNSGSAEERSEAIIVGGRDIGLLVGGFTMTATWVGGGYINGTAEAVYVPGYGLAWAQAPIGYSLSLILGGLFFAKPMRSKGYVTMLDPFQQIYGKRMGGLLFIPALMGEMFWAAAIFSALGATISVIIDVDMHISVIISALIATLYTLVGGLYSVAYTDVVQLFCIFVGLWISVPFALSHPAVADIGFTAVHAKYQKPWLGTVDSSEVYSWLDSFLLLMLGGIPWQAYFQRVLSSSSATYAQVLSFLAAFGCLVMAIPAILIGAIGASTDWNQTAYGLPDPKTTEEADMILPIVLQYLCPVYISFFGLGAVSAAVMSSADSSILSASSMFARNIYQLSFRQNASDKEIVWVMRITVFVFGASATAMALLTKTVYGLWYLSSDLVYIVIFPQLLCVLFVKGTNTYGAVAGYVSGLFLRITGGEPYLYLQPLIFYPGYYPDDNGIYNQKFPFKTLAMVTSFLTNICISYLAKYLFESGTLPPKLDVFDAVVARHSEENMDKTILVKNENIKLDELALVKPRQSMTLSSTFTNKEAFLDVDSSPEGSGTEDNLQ

Sequence of Mitochondrial peptide methionine sulfoxide reductase (P54149 whole entry): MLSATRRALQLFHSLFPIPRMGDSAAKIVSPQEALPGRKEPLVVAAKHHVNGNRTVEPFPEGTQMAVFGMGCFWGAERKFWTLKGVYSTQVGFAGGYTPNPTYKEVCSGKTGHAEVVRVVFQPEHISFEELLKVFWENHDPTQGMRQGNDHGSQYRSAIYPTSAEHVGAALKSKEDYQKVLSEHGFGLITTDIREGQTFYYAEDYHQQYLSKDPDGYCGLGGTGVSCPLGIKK
Sequence of Melanin-concentrating hormone receptor 1 (Q99705 whole entry): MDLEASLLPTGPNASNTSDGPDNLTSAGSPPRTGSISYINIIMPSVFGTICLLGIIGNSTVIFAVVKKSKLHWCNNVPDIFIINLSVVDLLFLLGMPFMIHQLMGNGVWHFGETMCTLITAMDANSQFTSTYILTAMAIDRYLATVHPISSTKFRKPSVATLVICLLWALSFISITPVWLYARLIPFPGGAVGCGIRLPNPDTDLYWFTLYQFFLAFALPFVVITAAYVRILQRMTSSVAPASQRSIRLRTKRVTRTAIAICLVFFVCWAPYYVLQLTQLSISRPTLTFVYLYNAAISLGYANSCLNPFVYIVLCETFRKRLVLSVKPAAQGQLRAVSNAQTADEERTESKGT

Structure (SMILES): CCN1/C(=C/c2ccc3cc(C)ccc3[n+]2CC)Sc2cc(C)c(C)cc21
- IC50 [1]: 9.2 µM (active)
- IC50 [2]: > 4.87 µM (active)
- EC50 [3]: 11.9 µM (active)

Structure (SMILES): Cc1oc2c(c1C(=O)c1ccccc1)C(=O)C(=O)c1ccccc1-2
- EC50 [4]: 63.2 µM (inactive)

Structure (SMILES): O=C(O)COc1ccc(/C=N/NC(=O)c2ccc(-c3csc(Nc4ccc(Cl)cc4)n3)cc2)cc1
- IC50 [5]: 0.113 µM (active)

Structure (SMILES): CC(/C=C1\SC(=S)N(NS(=O)(=O)c2ccccc2)C1=O)=C\c1ccccc1
- IC50 [6]: 9.12 µM (active)
